Reference: the OligoGym collection
Values joined by “and” are separate entries in the source; they are usually repeats but may differ in a detail not shown here. Equal values may be shown once. After the bases stand the sugars from the 5' end (letter, count) and the backbone: PS all phosphorothioate, else s phosphorothioate and o phosphodiester by linkage. Methylation of C is not given here. e = 2'-O-(2-methoxyethyl) (MOE); k = constrained ethyl (cEt); d = 2'-deoxy (DNA)

Target: IRF4
Conditions: ASO

Sequence | target mRNA inhibition (SK-MEL-28, 4 µM) [%] | target mRNA inhibition (MM.1R, 1 µM) | further results
GTAAACTGAAAGACCC (sugars k3 d10 k3, PS) | 35 | – | –
TTTTAGTGTTACTTGC (sugars k3 d10 k3, PS) | 32 | – | –
CAGCAAAGAGGGTCAC (sugars k3 d10 k3, PS) | 61 | – | –
TACAAAAACTTGGGTC (sugars k3 d10 k3, PS) | 9 | – | –
GAAGTTTACACTGGAT (sugars kdddddddddkekeke, PS) | – | 11% | –
TCCTATGGTCAGCCTC (sugars k3 d10 k3, PS) | 48 | – | –
AACTTTCACCTGTGGG (sugars k3 d10 k3, PS) | 50 | – | –
CAAAGCAAGTGTCTAA (sugars k3 d10 k3, PS) | 23 | – | –
CGAGAACGCACGGACG (sugars k3 d10 k3, PS) | – | -11% | –
CACCTGATCTTGCTGC (sugars k3 d10 k3, PS) | – | 12% | –
TAAACAAGATGAATCC (sugars k3 d10 k3, PS) | 44 | – | –
TACTGTTACCGATGCT (sugars kkddddddddddkeke, PS) | – | 24% and 17% | –
ATCAGATTGAATCCAT (sugars k3 d10 k3, PS) | – | 23% | –
TGTGCTTGCCAAGCCT (sugars kdddddddddkekeke, PS) | – | -3% and 16% | –
CTACACTTCCAAGCAA (sugars k3 d10 k3, PS) | -5 | – | –
GTTGACACAGGAGCCG (sugars k3 d10 k3, PS) | 53 | – | –
CTAATGGTGCTCCTAA (sugars k3 d10 k3, PS) | – | 4% | –
CGTCGCAGGAGCGCGG (sugars k3 d10 k3, PS) | – | 1% | –
GGTAAGATCTCCATGG (sugars k3 d10 k3, PS) | 45 | – | –
CTGCTTGAGGTTTTCC (sugars kdddddddddkekeke, PS) | – | 20% | –
TTACTAGGTGCTTGTT (sugars k3 d10 k3, PS) | 50 | – | –
GAAGTTTACACTGGAT (sugars kkdddddddddkdkdk, PS) | – | 23% | –
TTCCAACAGGCGGACA (sugars k3 d10 k3, PS) | 43 | – | –

Sequence | target mRNA inhibition (SK-MEL-28, 4 µM) [%] | target mRNA inhibition (MM.1R, 1 µM) | further results
AAGCAGTGATGTCAGG (sugars k3 d10 k3, PS) | – | 66% and 65% | target mRNA inhibition (MM.1R, 0.0625 µM): 8%; target mRNA inhibition (MM.1R, 0.25 µM): 25%; target mRNA inhibition (MM.1R, 4 µM): 75%
CTAAAACTGCGCTCTC (sugars k3 d10 k3, PS) | 24 | – | –
CACCCACACAAGTCTT (sugars k3 d10 k3, PS) | 9 | – | –
TCAAGAGGAACTAGTC (sugars k3 d10 k3, PS) | 24 | – | –
GGCGAGTGGCGGGTAG (sugars k3 d10 k3, PS) | 8 | – | –
ATGGACATCTGCGGGT (sugars k3 d10 k3, PS) | 50 | – | –
CGTTCTCCCACACCAG (sugars k3 d10 k3, PS) | 48 | – | –
CCTGGGACTCAGGTGG (sugars k3 d10 k3, PS) | 59 | – | target mRNA inhibition (MM.1R, 0.074 µM): 6%; target mRNA inhibition (MM.1R, 0.222 µM): -6%; target mRNA inhibition (MM.1R, 0.666 µM): 0%; target mRNA inhibition (MM.1R, 2 µM): 13%; target mRNA inhibition (SK-MEL-28, 0.185 µM): 9%; target mRNA inhibition (SK-MEL-28, 5 µM): 64%; target mRNA inhibition (SK-MEL-28, 15 µM): 91%
GTAATTTTAAGGCCCT (sugars k3 d10 k3, PS) | 55 | – | –
CTACACAGGCTAATCA (sugars k3 d10 k3, PS) | – | 4% | –
CATGATAAGGCACTAC (sugars k3 d10 k3, PS) | – | -6% | –
CAGTTGTAAATGAGTC (sugars kkdddddddddkdkdk, PS) | – | 46% | –
CCTAGAGGTGCCTTCT (sugars k3 d10 k3, PS) | 41 | – | –
GGCAGTTGTGCCGTCT (sugars k3 d10 k3, PS) | – | -17% | –
TAGCCAATTCCTCCAC (sugars k3 d10 k3, PS) | – | 1% | –
CGCGGAGGACCTCGCC (sugars k3 d10 k3, PS) | – | -7% | –
AATCACCCTGGTCACC (sugars k3 d10 k3, PS) | – | 1% | –
TTGGTTGGCTGGTCTT (sugars kkdddddddddkdkdk, PS) | – | 55% | –
TGGCAGTGGAGCTCCA (sugars k3 d10 k3, PS) | 46 | – | –
GGAAATACGACAACTT (sugars k3 d10 k3, PS) | 63 | – | –
CTAATTCCATAGAGCC (sugars k3 d10 k3, PS) | 80 | 47% | target mRNA inhibition (MM.1R, 0.0625 µM): 2%; target mRNA inhibition (MM.1R, 0.074 µM): -13%; target mRNA inhibition (MM.1R, 0.222 µM): -6%; target mRNA inhibition (MM.1R, 0.25 µM): 8%; target mRNA inhibition (MM.1R, 0.666 µM): 4%; target mRNA inhibition (MM.1R, 2 µM): 20%; target mRNA inhibition (MM.1R, 4 µM): 88%
GGAACTCCCGAGGGCA (sugars k3 d10 k3, PS) | – | 13% | –
GTGAGATGCGGAGGTT (sugars k3 d10 k3, PS) | – | 39% | target mRNA inhibition (MM.1R, 0.0625 µM): 14%; target mRNA inhibition (MM.1R, 0.25 µM): 12%; target mRNA inhibition (MM.1R, 4 µM): 66%

Sequence | target mRNA inhibition (SK-MEL-28, 4 µM) [%] | target mRNA inhibition (MM.1R, 1 µM) | further results
GACAGATGACATGCTT (sugars k3 d10 k3, PS) | 9 | – | –
TCTGAGCAGAACGAGG (sugars k3 d10 k3, PS) | 47 | – | –
AGTTGTAAATGAGTCG (sugars kkddddddddddkeke, PS) | – | 59% | target mRNA inhibition (H929, 0.04 µM): 53% and 73%; target mRNA inhibition (KMS11, 0.2 µM): 83% and 91%; target mRNA inhibition (MM.1R, 0.074 µM): 28%; target mRNA inhibition (MM.1R, 0.222 µM): 44%; target mRNA inhibition (MM.1R, 0.666 µM): 65%; target mRNA inhibition (MM.1R, 2 µM): 81%
CTACTTCAGCTACATT (sugars k3 d10 k3, PS) | 47 | – | –
CCAACTTAAAATCCAC (sugars k3 d10 k3, PS) | 9 | – | –
GATAACCTGAACATGA (sugars k3 d10 k3, PS) | 17 | – | –
CGGCTCCTCCTCCTTT (sugars k3 d10 k3, PS) | 11 | – | –
GATAGATCTGTGGTAA (sugars k3 d10 k3, PS) | – | 22% | –
CCGTTCCTTTTTTAGT (sugars k3 d10 k3, PS) | – | -3% | –
GAAGAAGGCACCTTCG (sugars k3 d10 k3, PS) | 25 | – | –
CGCCGGACCCCGGAGC (sugars k3 d10 k3, PS) | 9 | – | –
CAATAAAATGTCACGC (sugars k3 d10 k3, PS) | 47 | – | –
AACTAATGTCCCCAGG (sugars k3 d10 k3, PS) | – | -12% | –
ACTTTGTACGGGTCTG (sugars k3 d10 k3, PS) | 39 | – | –
GGAGATACTTGTACTG (sugars k3 d10 k3, PS) | 66 | 55% | target mRNA inhibition (MM.1R, 0.0625 µM): 2%; target mRNA inhibition (MM.1R, 0.074 µM): 16%; target mRNA inhibition (MM.1R, 0.222 µM): 25%; target mRNA inhibition (MM.1R, 0.25 µM): 26%; target mRNA inhibition (MM.1R, 0.666 µM): 48%; target mRNA inhibition (MM.1R, 2 µM): 77%; target mRNA inhibition (MM.1R, 4 µM): 87%
GGAGTGATCTCTGTGG (sugars k3 d10 k3, PS) | 68 | – | –
CAATGGAGATACTTGT (sugars k3 d10 k3, PS) | – | -16% | –
AACTTATAGCACTCTC (sugars k3 d10 k3, PS) | 28 | – | –
GTAAGGGCTGCTCATT (sugars k3 d10 k3, PS) | 52 | – | –
GTATTTGTCGAGATCA (sugars k3 d10 k3, PS) | 59 | – | –
CTGTTAAGTCCCATCT (sugars k3 d10 k3, PS) | 54 | – | –
GACTCAAGAAAATAGG (sugars k3 d10 k3, PS) | 64 | – | –
